Laboratory results as given in patent US10907212B2, “Inhibitors of cell adhesion” (Regents of the University of Minnesota, priority 2016, dated 2021).
“Also recorded” adds a separate entry of the source. Where no end group is shown, it is not given here.

Assays:
[1] = tested on: nectin 4 protein on NIH:OVCAR-5 cells; experiment: Effect of peptides on anti-Nectin-4 antibody binding to cells as determined by flow cytometry; assay type: cell-based, human; settings: for IgG MFI: IgG control primary antibody; for nectin-4 antibody binding compared to untreated control cells (in words): flow cytometry; for Flow binding: summary table, Nectin-4 antibody binding relative to control = 100
Description: Confluent monolayers of cells were detached from 75 cm^2 tissue culture flasks using Accutase cell dissociation buffer (Innovative Cell Technologies, San Diego, Calif.), washed, and labeled with mouse IgG or mAbs against Nectin-4 or Nectin-1 (2.5 μg/10^6 cells) in Flow Buffer [phosphate buffered saline (PBS) containing 2.5% newborn calf serum and 0.02% sodium azide] for 30 min at 4° C.. Cells were washed and incubated with goat anti-mouse IgG F(ab′)2 (Jackson ImmunoResearch, West Grove, Pa.), then washed again and incubated with streptavidin-allophycocyanin conjugate (Jackson ImmunoResearch, West Grove, Pa.) for 30 min each. Cells were washed and fixed in Flow Buffer containing 1% formaldehyde and analyzed in the University of Minnesota Flow Cytometry Resource with a BD Accuri™ C6 flow cytometer (BD Biosciences, San Jose, Calif.) using the Accuri™ software.
Briefly, NIH:OVCAR-5 cells that natively express a moderate amount of nectin 4 protein were incubated for 30 minutes in 150 μg/mL of soluble peptide in DMSO. After incubation, the cells were washed, and then triple antibody stained using mouse anti-nectin 4 (or IgG control) primary antibody, biotinylated goat anti-mouse secondary antibody, and streptavidin APC tertiary antibody. Finally, utilizing the University of Minnesota flow core's Accuri C6 flow cytometer, the relative antibody binding affinity for control and peptide-treated samples was quantitated and compared. Data was collected for each of the 57 peptides generated.

[2] = tested on: ovarian cancer cell aggregation and spheroid formation; experiment: Spheroid assay for peptides (visual scale +1 to +5); assay type: cell-based, human; settings: for Spheroid-24: 24 hrs, Control = 2; for Spheroid-24 / Spheroid-48: visual scale of +1 to +5; for Spheroid-48: 48 hrs, Control = 4; for spheroid size relative to the control (in words): at 24 hrs
Description: Spheroids were formed from the NIH:OVCAR5 cell lines described above using the liquid overlay method. One milliliter of a single cell suspension was seeded at a concentration of 50,000 cells/ml in OptiMEM® media, into 24-well tissue culture plates coated with 0.5% Seakem agarose (in complete RPMI-1640). Plates were incubated at 37° C. in a humidified incubator with 5% CO2. At various time points up to 5 days, the plates were removed from the incubator and the spheroids were photographed with a Nikon CoolPix digital camera mounted on an Olympus CK2 inverted microscope with a 4× objective. The size of the spheroids was determined using the measure tool in Adobe Photoshop. The largest spheroids were quantified (20-90 spheroids/well), in a minimum of 8 wells, for a total of >300 spheroids per cell type.
The clinical relevance is that by blocking the formation of spheroids, the cells will be more sensitive to chemotherapy (which targets the single cells that proliferate more rapidly than spheroids).
The spheroid assay for peptides 1-30 were scored using a visual scale of +1 to +5. The controls were scored at +2 (24 hrs) and +4 (48 hrs). […] It may be harder to visually assess the size at 24 hours, since the spheroids are relatively small, but and perhaps some of the peptides are affecting cell division, and that is why the spheroids are smaller than the controls at 48 hours, but not 24 hrs (this can be easily assayed with an MTT assay).

[3] = Run One, 150 μg/mL peptide, 30 minutes, Control 1 = 15,015
[4] = Run One, 150 μg/mL peptide, 30 minutes, Control 1 = 1,670
[5] = Run One, antibody binding relative to Control 1 = 100.00
[6] = Run Three, 150 μg/mL peptide, 30 minutes, Control 3 = 13,070.20
[7] = Run Three, antibody binding relative to Control 3 = 100.00
[8] = Run Four, 150 μg/mL peptide, 30 minutes, Control 4 = 9,631.58
[9] = Run Four, Control 4 = 9.387504873
[10] = Run Four, antibody binding relative to Control 4 = 100
[11] = Run Two, 150 μg/mL peptide, 30 minutes, Control 2 = 49,491
[12] = Run Two, antibody binding relative to Control 2 = 100.00

Substance	N4 MFI [1, 3]	IgG MFI [1, 4]	N4 MFI/IgG MFI ([1]; Run One, Control 1 = 8.99)	nectin-4 antibody binding, percent of control [1, 5]	Spheroid-24 [2]	Spheroid-48 [2]	nectin-4 antibody binding compared to untreated control cells (in words) ([1]; 150 μg/mL peptide)	Flow binding [1]	further results
EVKGTTSSRSFKHS-NH2 (listed as Homo sapiens) [Peptide 14]	13,217	3,125	4.23	75.62	1	2	–	–	–
FANPLPSVKITQVTW-NH2 (listed as Homo sapiens) [Peptide 32]	–	–	–	–	–	2	reduction in nectin-4 antibody binding	13%	N4 MFI [1, 6]: 2,542.31; N4 MFI/IgG MFI ([1]; Run Three, Control 3 = 9.83): 2.47; IgG MFI ([1]; Run Three, Control 3 = 1330): 1029; nectin-4 antibody binding, percent of control [1, 7]: 12.89
GQDDKVLVATCTSANG-NH2 (listed as Homo sapiens) [Peptide 41]	–	–	–	–	3	–	–	–	N4 MFI [1, 8]: 9,040.73; N4 MFI/IgG MFI [1, 9]: 8.302; IgG MFI ([1]; Run Four, Control 4 = 1,026): 1,089; nectin-4 antibody binding, percent of control [1, 10]: 92.4
HGRRAGPVPTA-NH2 (listed as Homo sapiens) [Peptide 56]	–	–	–	–	–	3	–	–	N4 MFI ([1]; Run Five, 150 μg/mL peptide, 30 minutes, Control 5 = 17,768.90): 21,060.14; N4 MFI/IgG MFI ([1]; Run Five, Control 5 = 2.142155332): 2.035; IgG MFI ([1]; Run Five, Control 5 = 8,294.87): 10,346.61; nectin-4 antibody binding, percent of control ([1]; Run Five, antibody binding relative to Control 5 = 100): 113.1
HSQVVQVNDSMYGF-NH2 (listed as Homo sapiens) [Peptide 30]	–	–	–	–	–	3	erroneous/outlier due to solubility issues	321%	N4 MFI [1, 11]: 205,442; N4 MFI/IgG MFI ([1]; Run Two, Control 2 = 9.46): 3.24; IgG MFI ([1]; Run Two, Control 2 = 5,233): 63,394; nectin-4 antibody binding, percent of control [1, 12]: 320.95
HSRSAAVTSEFHLV-NH2 (listed as Homo sapiens) [Peptide 15]	7,980	2,158	3.70	43.63	1	2	reduction in nectin-4 antibody binding; also recorded: reduced antibody binding	44%	spheroid size (in words) [2]: reduced spheroid size
ICEFATFPTGNRES-NH2 (listed as Homo sapiens) [Peptide 38]	–	–	–	–	1	3	–	–	N4 MFI [1, 6]: 12,128.26; N4 MFI/IgG MFI ([1]; Run Three, Control 3 = 9.83): 7.73; IgG MFI ([1]; Run Three, Control 3 = 1330): 1568; nectin-4 antibody binding, percent of control [1, 7]: 89.95
LPSLNPGPALEEGQ-NH2 (listed as Homo sapiens) [Peptide 11]	15,211	2,268	6.71	96.99	~1?	3	–	–	–
LRNAVQADEGEYEC-NH2 (listed as Homo sapiens) [Peptide 8]	20,015	1,670	11.99	137.47	3	–	increased the binding of the Nectin-4 antibody to cells	137%	spheroid size relative to the control (in words) [2]: slightly larger spheroid size
LVPSREAHQQSLAC-NH2 (listed as Homo sapiens) [Peptide 45]	–	–	–	–	3	–	–	–	N4 MFI [1, 8]: 9,868.29; N4 MFI/IgG MFI [1, 9]: 9.646; IgG MFI ([1]; Run Four, Control 4 = 1,026): 1023; nectin-4 antibody binding, percent of control [1, 10]: 102.8
LVPSRSMNGQPLTC-NH2 (listed as Homo sapiens) [Peptide 16]	12,161	2,432	5.00	72.90	1	1	–	–	–
LWHIGREGAMLKCL-NH2 (listed as Homo sapiens) [Peptide 20]	17,636	1,890	9.33	117.99	–	2	increased binding of nectin-4 antibody	118%	–
NPNGTVTVISRYRLV-NH2 (listed as Homo sapiens) [Peptide 44]	–	–	–	–	3	–	–	–	N4 MFI [1, 8]: 7,802.22; N4 MFI/IgG MFI [1, 9]: 8.481; IgG MFI ([1]; Run Four, Control 4 = 1,026): 920; nectin-4 antibody binding, percent of control [1, 10]: 79.97
PEVTIEGFDGNW-NH2 (listed as Homo sapiens) [Peptide 48]	–	–	–	–	1	2	–	–	N4 MFI [1, 8]: 10,595.37; N4 MFI/IgG MFI [1, 9]: 9.911; IgG MFI ([1]; Run Four, Control 4 = 1,026): 1069; nectin-4 antibody binding, percent of control [1, 10]: 110.7
PPPRNPLDGSVLLR-NH2 (listed as Homo sapiens) [Peptide 7]	18,342	1,255	14.62	128.04	3	–	increased the binding of the Nectin-4 antibody to cells	128%	spheroid size relative to the control (in words) [2]: slightly larger spheroid size
QARLRLRVLVPPLP-NH2 (listed as Homo sapiens) [Peptide 10]	4,119	2,452	1.68	12.49	1	2	reduction in nectin-4 antibody binding; also recorded: reduced antibody binding	12.50%	spheroid size (in words) [2]: reduced spheroid size
RLKGEAEYQEIRNP-NH2 (listed as Homo sapiens) [Peptide 43]	–	–	–	–	5	–	–	–	N4 MFI [1, 8]: 9,677.93; N4 MFI/IgG MFI [1, 9]: 7.399; IgG MFI ([1]; Run Four, Control 4 = 1,026): 1308; nectin-4 antibody binding, percent of control [1, 10]: 97.26
RPSFTDGTIRLS-NH2 (listed as Homo sapiens) [Peptide 36]	–	–	–	–	–	3	–	–	N4 MFI [1, 6]: 13,633.18; N4 MFI/IgG MFI ([1]; Run Three, Control 3 = 9.83): 7.80; IgG MFI ([1]; Run Three, Control 3 = 1330): 1748; nectin-4 antibody binding, percent of control [1, 7]: 101.23
RVDGDTLGFPPLTT-NH2 (listed as Homo sapiens) [Peptide 23]	–	–	–	–	1	2	reduction in nectin-4 antibody binding	35%	N4 MFI [1, 11]: 18,902; N4 MFI/IgG MFI ([1]; Run Two, Control 2 = 9.46): 5.66; IgG MFI ([1]; Run Two, Control 2 = 5,233): 3,342; nectin-4 antibody binding, percent of control [1, 12]: 35.16
SGKQVDLVSAS-NH2 (listed as Homo sapiens) [Peptide 27]	–	–	–	–	1	2	reduction in nectin-4 antibody binding	42%	N4 MFI [1, 11]: 22,824; N4 MFI/IgG MFI ([1]; Run Two, Control 2 = 9.46): 5.57; IgG MFI ([1]; Run Two, Control 2 = 5,233): 4,099; nectin-4 antibody binding, percent of control [1, 12]: 42.31
SNEFSSRDSQVTVD-NH2 (listed as Homo sapiens) [Peptide 25]	–	–	–	–	2	–	reduction in nectin-4 antibody binding	9.40%	N4 MFI [1, 11]: 7,756; N4 MFI/IgG MFI ([1]; Run Two, Control 2 = 9.46): 2.16; IgG MFI ([1]; Run Two, Control 2 = 5,233): 3,584; nectin-4 antibody binding, percent of control [1, 12]: 9.43
